Measurements from patent US7598234B2, “Steroid derived antibiotics” (Brigham Young University, priority 1998, dated 2009).
Values after ≈ are worked out from the molar mass of the structure shown.

What was measured:
[1] = tested on: E. coli (ATCC 25922); assay: MIC and MBC measurement with E. coli (ATCC 25922); format: cell-based, Escherichia coli; settings: Table 10; Escherichia coli ATCC 25922
Procedure, shortened: (§1)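 Growth inhibition read as absorbance at 760 nm after 24 h stationary culture at 37 °C in tryptic soy broth containing varied compound levels. Turbidity-free samples were plated on TSA overnight and CFU/mL compared with the starting inoculum for bactericidal endpoint; antibiotic co-additions followed compound by 15 min.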

[2] = tested on: E. coli (ATCC 10798); assay: Sensitization to erythromycin (concentration lowering the MIC of erythromycin), E. coli (ATCC 10798); format: cell-based, Escherichia coli; settings: Table 9; Escherichia coli (ATCC 10798)
[3] = tested on: Klebsiella pneumonia ATCC 13883; assay: MIC and MBC measurement with Klebsiella pneumoniae ATCC 13883; format: cell-based; settings: Table 10
Procedure, shortened: (§2)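 Broth macrodilution, TSB, 37° C./24 h stationary; MIC by absence of A760 turbidity, MBC by TSA subculture CFU/mL against starting inoculum.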

[4] = tested on: Pseudomonas aeruginosa (ATCC 27853); assay: Sensitization to novobiocin, Pseudomonas aeruginosa (ATCC 27853); format: cell-based; settings: Table 12, Pseudomonas aeruginosa ATCC 27853; for FIC: novobiocin (by order); for concentration required to inhibit bacterial growth with antibiotic: novobiocin (by order) at 0.5, 1.0 or 3.0 μg/mL
Procedure, shortened: (§3)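 Sensitization measured by the cholic acid derivative concentration inhibiting growth when combined with 0.5, 1.0 or 3.0 μg/mL erythromycin or novobiocin, antibiotic added 15 min after derivative. Incubation 24 h at 37 °C without shaking in TSB; growth by absorbance at 760 nm with CFU plating of non-turbid tubes; synergy expressed as FIC.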

[5] = tested on: Streptococcus pyrogenes ATCC 19615; assay: MIC and MBC measurement with Streptococcus pyogenes ATCC 19615; format: cell-based; settings: Table 10
Procedure, shortened: as §2

[6] = tested on: Pseudomonas aeruginosa (ATCC 27853); assay: Sensitization to erythromycin, Pseudomonas aeruginosa (ATCC 27853); format: cell-based; settings: Table 11, Pseudomonas aeruginosa ATCC 27853; for FIC: erythromycin (by order); for concentration required to inhibit bacterial growth with antibiotic: erythromycin (by order) at 0.5, 1.0 or 3.0 μg/mL
Procedure, shortened: as §3

[7] = tested on: Salmonella typhimurium ATCC 14028; assay: Growth inhibition and FIC with novobiocin, Salmonella typhimurium ATCC 14028; format: cell-based; settings: for FIC: Table 12, novobiocin (by order); for concentration required to inhibit bacterial growth with antibiotic: Table 12, novobiocin (by order) at 0.5, 1.0 or 3.0 μg/mL
Experimental: (§4) Alternatively, “fractional inhibitory concentration (FIC)” is also useful for determination of synergy between the compounds of the invention, or the compounds in combination with known antibiotics. FICs can be performed by checkerboard titrations of compounds in one dimension of a microtiter plate, and of antibiotics in the other dimension, for example. The FIC is calculated by looking at the impact of one antibiotic on the MIC of the other and vice versa. […] Preferably, an FIC of less than 0.5 is obtained for synergism. As used herein, FIC can be determined as follows:
(§5) Aliquots of 1 mL of the suspension were added to test tubes containing 1 mL TSB and incrementally varied concentrations of cholic acid derivatives and/or erythromycin or novobiocin. In the sensitization experiments, erythromycin or novobiocin were added 15 minutes later than the cholic acid derivatives. The samples were subjected to stationary incubation at 37° C. for 24 hours. Sample turbidity was determined by measuring absorption at 760 nm (HP 8453 UV-Visible Chemstation, Hewlett Packard). Additionally, an alliquot from each of the samples showing no measurable turbidity was subcultured on TSA plates (alliquots were diluted to provide fewer than 300 CFU). Colonies that grew on the subculture after overnight incubation were counted and the number of CFU/mL in the samples were calculated. The calculated values were compared to the number of CFU/mL in the original inoculum.
(§6) To measure permeabilization, the FIC values for compounds 1, 2, 5, 106, 10, 112, 133, and 134 with erythromycin, novobiocin, and rifampicin were determined. Concentrations of 0.5, 1.0 or 3.0 μg/mL of these antibiotics were used, and the concentrations of the cholic acid derivatives required to inhibit bacterial growth of Gram-negative strains were determined.

[8] = tested on: Klebsiella pneumonia ATCC 13883; assay: Growth inhibition and FIC with rifampicin, Klebsiella pneumoniae ATCC 13883; format: cell-based; settings: for FIC: Table 13, rifampicin (by order); for concentration required to inhibit bacterial growth with antibiotic: Table 13, rifampicin (by order) at 0.5, 1.0 or 3.0 μg/mL
Experimental: as §4, §5, §6

[9] = tested on: Pseudomonas aeruginosa (ATCC 27853); assay: MIC and MBC measurement with Pseudomonas aeruginosa (ATCC 27853); format: cell-based; settings: Table 10; Pseudomonas aeruginosa ATCC 27853
Procedure, shortened: as §2

[10] = tested on: Pseudomonas aeruginosa ATCC 27853; assay: Growth inhibition and FIC with rifampicin, Pseudomonas aeruginosa ATCC 27853; format: cell-based; settings: Table 13, Pseudomonas aeruginosa ATCC 27853^b; for FIC: rifampicin (by order); for concentration required to inhibit bacterial growth with antibiotic: rifampicin (by order) at 0.5, 1.0 or 3.0 μg/mL
Experimental: as §4, §5, §6

[11] = tested on: Escherichia coli ATCC 25922; assay: Growth inhibition and FIC with rifampicin, Escherichia coli ATCC 25922; format: cell-based; settings: for FIC: Table 13, rifampicin (by order); for concentration required to inhibit bacterial growth with antibiotic: Table 13, rifampicin (by order) at 0.5, 1.0 or 3.0 μg/mL
Experimental: as §4, §5, §6

[12] = tested on: Klebsiella pneumonia ATCC 13883; assay: Growth inhibition and FIC with novobiocin, Klebsiella pneumoniae ATCC 13883; format: cell-based; settings: Table 12, novobiocin (by order) at 0.5, 1.0 or 3.0 μg/mL
Experimental: as §4, §5, §6

[13] = tested on: Staphylococcus aureus ATCC 25923; assay: MIC and MBC measurement with Staphylococcus aureus ATCC 25923; format: cell-based; settings: Table 10; Staphylococcus aureus ATCC 25923
Procedure, shortened: as §1

[14] = tested on: E. coli (ATCC 10798); assay: Sensitization to novobiocin (concentration lowering the MIC of novobiocin), E. coli (ATCC 10798); format: cell-based, Escherichia coli; settings: Table 9; Escherichia coli (ATCC 10798)

| SMILES | MBC [1] [µg/mL] | MIC [1] [µg/mL] | (a) Concentration required to lower the MIC of erythromycin from 70 to 1 μg/mL [2] [µg/mL] | (b) MBC with 1 μg/mL erythromycin [2] [µg/mL] | FIC values with erythromycin [2] | MBC [3] [µg/mL] | MIC [3] [µg/mL] | FIC [4] | concentration required to inhibit bacterial growth with antibiotic [4] [µg/mL] | MBC [5] [µg/mL] | MIC [5] [µg/mL] | FIC [6] | concentration required to inhibit bacterial growth with antibiotic [6] [µg/mL] | FIC [7] | concentration required to inhibit bacterial growth with antibiotic [7] [µg/mL] | FIC [8] | concentration required to inhibit bacterial growth with antibiotic [8] [µg/mL] | MBC [9] [µg/mL] | MIC [9] [µg/mL] | FIC [10] | other results |
| --- | --- | --- | --- | --- | --- | --- | --- | --- | --- | --- | --- | --- | --- | --- | --- | --- | --- | --- | --- | --- | --- |
| C[C@]12CC[C@@H](OCCCN)C[C@H]1C[C@@H](OCCCN)[C@@H]1[C@@H]2C[C@H](OCCCN)[C@]2(C)[C@@H](O)CC[C@@H]12 [Compound 106] | 90 (≈ 182 µM) | 80 (≈ 161 µM) | 30 | 160 | 0.23 | 100 (≈ 202 µM) | >100 | 0.36 | 30 | 37 (≈ 74.6 µM) | 18 (≈ 36.3 µM) | 0.22 | 16 | 0.094 | 8.4 | 0.044 | 1.8 | 97 (≈ 196 µM) | 85 (≈ 171 µM) | 0.17 | concentration required to inhibit bacterial growth with antibiotic [10]: 11 µg/mL; FIC [11]: 0.12; concentration required to inhibit bacterial growth with antibiotic [11]: 4.2 µg/mL; concentration required to inhibit bacterial growth with antibiotic [12]: 8.9 µg/mL; MBC [13]: 54 µg/mL (≈ 109 µM); MIC [13]: 8.6 µg/mL (≈ 17.3 µM); (d) Concentration required to lower the MIC of novobiocin from >500 to 1 μg/mL [14]: 50 µg/mL; FIC values with novobiocin [14]: 0.36 |
| CCCOCCC[C@@H](C)[C@H]1CC[C@H]2[C@@H]3[C@H](OCCCN)C[C@@H]4C[C@H](OCCCN)CC[C@]4(C)[C@H]3C[C@H](OCCCN)[C@]12C [Compound 112] | 7.4 (≈ 12.2 µM) | 6.6 (≈ 10.9 µM) | 0.4 | 4.0 | 0.048 | 27 (≈ 44.4 µM) | 23 (≈ 37.8 µM) | 0.17 | 0.72 | 3.0 (≈ 4.93 µM) | 2.4 (≈ 3.95 µM) | 0.59 | 1.0 | 0.015 | 0.39 | 0.031 | 0.11 | 6.4 (≈ 10.5 µM) | 4.6 (≈ 7.57 µM) | 0.15 | concentration required to inhibit bacterial growth with antibiotic [10]: 0.50 µg/mL; FIC [11]: 0.19; concentration required to inhibit bacterial growth with antibiotic [11]: 0.81 µg/mL; concentration required to inhibit bacterial growth with antibiotic [12]: 0.19 µg/mL; MBC [13]: 4.2 µg/mL (≈ 6.91 µM); MIC [13]: 0.55 µg/mL (≈ 0.905 µM); (d) Concentration required to lower the MIC of novobiocin from >500 to 1 μg/mL [14]: 0.8 µg/mL; FIC values with novobiocin [14]: 0.085 |
